{
  "source": "patent US20190343908A1",
  "about": "“Therapeutic Combination for the Treatment of Cancer” (Nerium Biotechnology Inc., priority 2011, published 2019)",
  "key": {"[1]": {"test_system": "T47D (human breast cancer)", "test": "Crystal Violet viability assay, T47D", "type": "cell-based", "parameters": "key: absorbance at 570 nm (crystal violet), background wavelength subtracted", "excerpt": "(§1) Three different viability assays were chosen to complement each other and yielded results dependent on concentration and cell line: the Methyl Tetrazolium dye assay, the Sulforhodamine B fluorescent dye assay, and the Crystal Violet dye assay.\nThe Sulforhodamine B and Crystal Violet assays provide information about protein and were used to complement the Methyl-Tetrazolium dye assay. […] It is used for the quantification of cellular proteins of cultured cells. The assay using Crystal Violet, a dye that binds electrostatically to proteins and stains DNA, provides a reliable, simple assay for measuring viability of cells.\n(§2) The Methyl Tetrazolium, Sulforhodamine B, and Crystal Violet assays were used to assess cell viabilities. The incubation times were 24 hours, 48 hours, and 72 hours. The Nerium oleander extract Anvirzel™ (a hot water extract of oleander obtained from Salud Integral, Honduras) was tested in concentrations ranging from 0.01 ng/mL to 10 ng/mL.\n(§3) Cells were detached by trypsinization (Trypsin-0.25% EDTA, Invitrogen, 25200-072) during the logarithmic phase of culture growth and plated in 96-well plates (18.000 cells/well) (Corning, Costar 359) in a final volume of 200 μl of medium per well. […] The absorbance was measured after 24 hours, 48 hours, and 72 hours of incubation.\nFor the Crystal Violet assay, the medium was removed from the 96-well plates, the plates rinsed with PBS (Sigma, P3813) and then the cells were […] by the addition of 10% formalin (MERCK, 1.04003.2500) for 20 minutes at RT. Formalin was removed and 0.25% aqueous crystal violet (Sigma, HT901), dissolved in water, was added for 10 minutes at RT. Unbound Crystal Violet was rinsed by washing with water and finally 33% acetic acid was added to dissolve the dye.\n(§4) The optical density of each plate was measured on a μQuant spectrophotometer and the data were analyzed with Gen5 software (μQuant Biomolecular Spectrophotometer MQX200 and Gen5™ Microplate Data Collection & Analysis software, BioTek® Instruments. Inc, April 2008). Absorbance was measured at 570 nm for all assays and a second wavelength was measured in order to subtract noise. For the Methyl-Tetrazolium assay this second wavelength was 630 nm and for the Sulforhodamine B and Crystal Violet assays it was 690 nm."}, "[2]": {"test_system": "22Rv1 (human prostate cancer)", "test": "Methyl-Tetrazolium (MTT) viability assay, 22Rv1", "type": "cell-based", "settings": "for Average absorbance, MTT 24 h / Average absorbance, MTT 48 h / Average absorbance, MTT 72 h: 22Rv1 Run 3", "excerpt": "as §1\nThe Methyl-Tetrazolium dye assay measures the activity of enzymes in mitochondria. The dye precursor is taken up by cells, where it undergoes reduction to the purple formazan. It measures only the mitochondrial activity and, thus, it is not always a reliable indication of whether the cells themselves are alive or dead, since even a recently dead cell has […] enzyme activity in mitochondria. Intracellular glucose concentration, pH, and time before assay all affect the measurements.\nas §2, §3\nFor the Methyl-Tetrazolium assay, the dye (Sigma, M2128; 5 mg/mL, diluted in phosphate-buffered saline) was added to each well and plates were incubated for 3 hours at 37° C. After the end of the incubation period, the medium was discarded and the cells were rinsed with phosphate-buffered saline. Finally, the formazan crystals were dissolved in dimethylsulphoxide (Sigma, D4540).\nas §4"}},
  "data": [
    {"smiles": "N.N.[Cl][Pt][Cl]", "note": "[cisplatin]", "values": [
      {"measurement": "CVE Average", "setting": "[1]; T47D Run 1, 24 h, 0.1 μg/ml CDDP", "result": 0.64},
      {"measurement": "CVE Average", "setting": "[1]; T47D Run 1, 24 h, 10 μg/ml CDDP", "result": 0.417},
      {"measurement": "CVE Average", "setting": "[1]; T47D Run 1, 48 h, 0.1 μg/ml CDDP", "result": 0.67},
      {"measurement": "CVE Average", "setting": "[1]; T47D Run 1, 48 h, 1 μg/ml CDDP", "result": 0.369},
      {"measurement": "CVE Average", "setting": "[1]; T47D Run 1, 48 h, 10 μg/ml CDDP", "result": 0.518},
      {"measurement": "CVE Average", "setting": "[1]; T47D Run 1, 48 h, 100 μg/ml CDDP", "result": 0.319},
      {"measurement": "CVE Average", "setting": "[1]; T47D Run 1, 72 h, 0.1 μg/ml CDDP", "result": 0.654},
      {"measurement": "CVE Average", "setting": "[1]; T47D Run 1, 72 h, 1 μg/ml CDDP", "result": 0.347},
      {"measurement": "CVE Average", "setting": "[1]; T47D Run 1, 72 h, 10 μg/ml CDDP", "result": 0.34},
      {"measurement": "CVE Average", "setting": "[1]; T47D Run 1, 72 h, 100 μg/ml CDDP", "result": 0.293},
      {"measurement": "CVE Average", "setting": "[1]; T47D Run 2, 24 h, 1 μg/ml CDDP", "result": 0.385},
      {"measurement": "CVE Average", "setting": "[1]; T47D Run 2, 24 h, 10 μg/ml CDDP", "result": 0.597},
      {"measurement": "CVE Average", "setting": "[1]; T47D Run 2, 24 h, 100 μg/ml CDDP", "result": 0.317},
      {"measurement": "CVE Average", "setting": "[1]; T47D Run 2, 48 h, 0.1 μg/ml CDDP", "result": 0.45},
      {"measurement": "CVE Average", "setting": "[1]; T47D Run 2, 48 h, 1 μg/ml CDDP", "result": 0.223},
      {"measurement": "CVE Average", "setting": "[1]; T47D Run 2, 48 h, 10 μg/ml CDDP", "result": 0.315},
      {"measurement": "CVE Average", "setting": "[1]; T47D Run 2, 72 h, 0.1 μg/ml CDDP", "result": 1.124},
      {"measurement": "CVE Average", "setting": "[1]; T47D Run 2, 72 h, 1 μg/ml CDDP", "result": 0.33},
      {"measurement": "CVE Average", "setting": "[1]; T47D Run 2, 72 h, 10 μg/ml CDDP", "result": 0.334},
      {"measurement": "CVE Average", "setting": "[1]; T47D Run 2, 72 h, 100 μg/ml CDDP", "result": 0.381},
      {"measurement": "CVE Average", "setting": "[1]; T47D Run 3, 24 h, 1 μg/ml CDDP", "result": 0.4},
      {"measurement": "CVE Average", "setting": "[1]; T47D Run 3, 24 h, 10 μg/ml CDDP", "result": 0.488},
      {"measurement": "CVE Average", "setting": "[1]; T47D Run 3, 24 h, 100 μg/ml CDDP", "result": 0.385},
      {"measurement": "CVE Average", "setting": "[1]; T47D Run 3, 48 h, 0.1 μg/ml CDDP", "result": 0.778},
      {"measurement": "CVE Average", "setting": "[1]; T47D Run 3, 48 h, 1 μg/ml CDDP", "result": 0.435},
      {"measurement": "CVE Average", "setting": "[1]; T47D Run 3, 48 h, 100 μg/ml CDDP", "result": 0.544},
      {"measurement": "CVE Average", "setting": "[1]; T47D Run 3, 72 h, 0.1 μg/ml CDDP", "result": 0.722},
      {"measurement": "CVE Average", "setting": "[1]; T47D Run 3, 72 h, 1 μg/ml CDDP", "result": 0.223},
      {"measurement": "CVE Average", "setting": "[1]; T47D Run 3, 72 h, 10 μg/ml CDDP", "result": 0.31},
      {"measurement": "CVE Average", "setting": "[1]; T47D Run 3, 72 h, 100 μg/ml CDDP", "result": 0.22},
      {"measurement": "MTT 24 h Average", "setting": "[2]; 22Rv1 Run 1, 0.1 μg/ml CDDP", "result": 0.042},
      {"measurement": "MTT 48 h Average", "setting": "[2]; 22Rv1 Run 1, 0.1 μg/ml CDDP", "result": 0.141},
      {"measurement": "MTT 72 h Average", "setting": "[2]; 22Rv1 Run 1, 0.1 μg/ml CDDP", "result": 0.168},
      {"measurement": "MTT 24 h Average", "setting": "[2]; 22Rv1 Run 1, 1 μg/ml CDDP", "result": 0.013},
      {"measurement": "MTT 48 h Average", "setting": "[2]; 22Rv1 Run 1, 1 μg/ml CDDP", "result": 0.013},
      {"measurement": "MTT 72 h Average", "setting": "[2]; 22Rv1 Run 1, 1 μg/ml CDDP", "result": 0.015},
      {"measurement": "MTT 24 h Average", "setting": "[2]; 22Rv1 Run 1, 10 μg/ml CDDP", "result": 0.033},
      {"measurement": "MTT 48 h Average", "setting": "[2]; 22Rv1 Run 1, 10 μg/ml CDDP", "result": 0.013},
      {"measurement": "MTT 72 h Average", "setting": "[2]; 22Rv1 Run 1, 10 μg/ml CDDP", "result": 0.01},
      {"measurement": "MTT 24 h Average", "setting": "[2]; 22Rv1 Run 1, 100 μg/ml CDDP", "result": 0.011},
      {"measurement": "MTT 48 h Average", "setting": "[2]; 22Rv1 Run 1, 100 μg/ml CDDP", "result": 0.008},
      {"measurement": "MTT 72 h Average", "setting": "[2]; 22Rv1 Run 1, 100 μg/ml CDDP", "result": 0.009},
      {"measurement": "MTT 24 h Average", "setting": "[2]; 22Rv1 Run 2, 0.1 μg/ml CDDP", "result": 0.077},
      {"measurement": "MTT 48 h Average", "setting": "[2]; 22Rv1 Run 2, 0.1 μg/ml CDDP", "result": 0.172},
      {"measurement": "MTT 72 h Average", "setting": "[2]; 22Rv1 Run 2, 0.1 μg/ml CDDP", "result": 0.29},
      {"measurement": "MTT 24 h Average", "setting": "[2]; 22Rv1 Run 2, 1 μg/ml CDDP", "result": 0.011},
      {"measurement": "MTT 48 h Average", "setting": "[2]; 22Rv1 Run 2, 1 μg/ml CDDP", "result": 0.014},
      {"measurement": "MTT 72 h Average", "setting": "[2]; 22Rv1 Run 2, 1 μg/ml CDDP", "result": 0.016},
      {"measurement": "MTT 24 h Average", "setting": "[2]; 22Rv1 Run 2, 10 μg/ml CDDP", "result": 0.019},
      {"measurement": "MTT 48 h Average", "setting": "[2]; 22Rv1 Run 2, 10 μg/ml CDDP", "result": 0.016},
      {"measurement": "MTT 72 h Average", "setting": "[2]; 22Rv1 Run 2, 10 μg/ml CDDP", "result": 0.013},
      {"measurement": "MTT 24 h Average", "setting": "[2]; 22Rv1 Run 2, 100 μg/ml CDDP", "result": 0.009},
      {"measurement": "MTT 48 h Average", "setting": "[2]; 22Rv1 Run 2, 100 μg/ml CDDP", "result": 0.008},
      {"measurement": "MTT 72 h Average", "setting": "[2]; 22Rv1 Run 2, 100 μg/ml CDDP", "result": 0.008},
      {"measurement": "Average absorbance, MTT 24 h", "setting": "[2]; 0.1 μg/ml CDDP", "result": 0.08},
      {"measurement": "Average absorbance, MTT 48 h", "setting": "[2]; 0.1 μg/ml CDDP", "result": 0.135},
      {"measurement": "Average absorbance, MTT 72 h", "setting": "[2]; 0.1 μg/ml CDDP", "result": 0.128},
      {"measurement": "Average absorbance, MTT 24 h", "setting": "[2]; 1 μg/ml CDDP", "result": 0.015},
      {"measurement": "Average absorbance, MTT 48 h", "setting": "[2]; 1 μg/ml CDDP", "result": 0.016},
      {"measurement": "Average absorbance, MTT 72 h", "setting": "[2]; 1 μg/ml CDDP", "result": 0.015},
      {"measurement": "Average absorbance, MTT 24 h", "setting": "[2]; 10 μg/ml CDDP", "result": 0.023},
      {"measurement": "Average absorbance, MTT 48 h", "setting": "[2]; 10 μg/ml CDDP", "result": 0.017},
      {"measurement": "Average absorbance, MTT 72 h", "setting": "[2]; 10 μg/ml CDDP", "result": 0.013},
      {"measurement": "Average absorbance, MTT 24 h", "setting": "[2]; 100 μg/ml CDDP", "result": 0.011},
      {"measurement": "Average absorbance, MTT 48 h", "setting": "[2]; 100 μg/ml CDDP", "result": 0.011},
      {"measurement": "Average absorbance, MTT 72 h", "setting": "[2]; 100 μg/ml CDDP", "result": 0.011}
    ]}
  ]
}
